Measured values: ChEMBL document CHEMBL4000233, “Synthesis and evaluation of 5-(1H-indol-3-yl)-N-aryl-1,3,4-oxadiazol-2-amines as Bcl-2 inhibitory anticancer agents” (Bioorg Med Chem Lett, 2017)

Tests used:
MDA-MB-231 = experiment: Cytotoxicity against human MDA-MB-231 cells assessed as growth inhibition after 72 hrs by MTT assay; format: functional, cell-based; conditions: MDA-MB-231, 72 h
Jurkat = experiment: Cytotoxicity against human Jurkat cells assessed as growth inhibition after 24 hrs by CellTiter Blue assay; format: functional, cell-based
[1] = biological target: Apoptosis regulator Bcl-2 (Homo sapiens, UniProt P10415); experiment: Inhibition of biotinylated Bim peptide binding to His-tagged Bcl-2 (unknown origin) preincubated for 1 hr followed by biotinylated Bim peptide addition measured after 2 hrs by ELISA
Apoptosis regulator Bcl-2, sequence (P10415 whole entry): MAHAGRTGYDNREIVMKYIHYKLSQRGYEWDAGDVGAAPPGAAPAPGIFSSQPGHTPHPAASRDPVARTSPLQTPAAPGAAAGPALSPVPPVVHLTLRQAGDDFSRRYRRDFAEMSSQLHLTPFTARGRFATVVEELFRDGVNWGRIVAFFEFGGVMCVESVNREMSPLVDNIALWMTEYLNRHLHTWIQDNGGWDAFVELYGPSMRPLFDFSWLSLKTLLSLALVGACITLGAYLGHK

KG-1a = experiment: Cytotoxicity against human KG1a cells assessed as growth inhibition after 24 hrs by CellTiter Blue assay; format: functional, cell-based
HeLa = experiment: Cytotoxicity against human HeLa cells assessed as growth inhibition after 72 hrs by MTT assay; format: functional, cell-based

| Structure (SMILES) | IC50 [1] | IC50 (MDA-MB-231) | IC50 (Jurkat) | IC50 (KG-1a) | IC50 (HeLa) |
| --- | --- | --- | --- | --- | --- |
| O=[N+]([O-])c1cccc(Nc2nnc(-c3c[nH]c4ccccc34)o2)c1 |  | 34.6 µM | > 100 µM | 25.5 µM | 15.1 µM |
| c1ccc(CNc2nnc(-c3c[nH]c4ccccc34)o2)cc1 |  | 6.47 µM | > 100 µM | > 100 µM | 7.81 µM |
| Clc1ccc(Nc2nnc(-c3c[nH]c4ccccc34)o2)cc1 |  | 9.77 µM | 30.2 µM | 3.16 µM | 3.8 µM |
| Fc1ccc(Nc2nnc(-c3c[nH]c4ccccc34)o2)cc1 |  | > 100 µM | > 100 µM | 21.1 µM | > 100 µM |
| Clc1ccc(Nc2nnc(-c3c[nH]c4ccccc34)o2)cc1Cl |  | 31.1 µM | > 100 µM | 45.3 µM | 19.3 µM |

Now from value to compound, other results behind:

| IC50 [1] | Structure (SMILES) | IC50 (MDA-MB-231) | IC50 (Jurkat) | IC50 (KG-1a) | IC50 (HeLa) |
| --- | --- | --- | --- | --- | --- |
| 21.1 µM | Cc1ccc(Nc2nnc(-c3c[nH]c4ccccc34)o2)cc1 | 27.2 µM | > 100 µM | 4 µM | 15.8 µM |
| 3.83 µM | O=[N+]([O-])c1ccc(Nc2nnc(-c3c[nH]c4ccccc34)o2)cc1 | 3.54 µM | 45 µM | 0.89 µM | 1.76 µM |
| 0.66 µM | Clc1cccc(Nc2nnc(-c3c[nH]c4ccccc34)o2)c1 | 8.89 µM | > 100 µM | 32.7 µM | 5.6 µM |
| 29 µM | COc1ccc(Nc2nnc(-c3c[nH]c4ccccc34)o2)cc1 | 10.1 µM | > 100 µM | 0.82 µM | 5.82 µM |
| 1.24 µM | O=[N+]([O-])c1ccccc1Nc1nnc(-c2c[nH]c3ccccc23)o1 | 0.9 µM | 30.2 µM | 0.85 µM | 0.3 µM |
